Literature values in US20060052448A1, “Use of methyl pyruvate or methyl pyruvic acid for the treatment of diseases of the nervous system and for protecting a human central nervous system against neuronal degeneration caused by defective intracellular energy production” (priority 2004, published 2006).
Like-named read-outs stand apart in the source and are kept apart here.

Legend:
malate-aspartate shuttle [1] = tested on: malate-aspartate shuttle
malate-aspartate shuttle [2] = details: mGPDH-deficient islets, both shuttles halted
Na(+)-K(+)-ATPase = details: 10 microM
[3] = tested on: porcine carotid artery strips
[4] = tested on: porcine carotid artery strips; details: 10 mM in PSS
[5] = tested on: isolated beta-cell mitochondria; details: in combination with glutamate
[6] = tested on: Jurkat T-lymphocyte mitochondria
pancreatic beta-cells [7] = tested on: pancreatic beta-cells
whole islets = details: 5 mM
pancreatic beta-cells [8] = tested on: pancreatic beta-cells; remark: listed apart in the source
pancreatic beta-cells [9] = tested on: pancreatic beta-cells; remark: listed apart in the source
[10] = tested on: isolated rat pancreatic islets
K(ATP) channels = biological target: T1, K(ATP) channels (Homo sapiens, UniProt Q09428+Q14654)
T1 construct: endogenous in cells
T1 sequence (Q14654 whole entry): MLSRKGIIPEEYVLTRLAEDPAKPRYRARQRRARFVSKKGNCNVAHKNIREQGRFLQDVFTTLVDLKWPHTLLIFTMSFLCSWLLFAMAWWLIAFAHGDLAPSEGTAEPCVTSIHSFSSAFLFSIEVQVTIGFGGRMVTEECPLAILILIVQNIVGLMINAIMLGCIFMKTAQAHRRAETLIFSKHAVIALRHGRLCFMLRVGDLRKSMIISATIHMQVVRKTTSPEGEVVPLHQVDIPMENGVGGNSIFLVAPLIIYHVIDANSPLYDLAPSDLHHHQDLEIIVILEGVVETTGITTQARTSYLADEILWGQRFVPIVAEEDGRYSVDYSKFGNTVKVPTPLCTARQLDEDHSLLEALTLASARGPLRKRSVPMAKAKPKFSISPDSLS
T1 sequence (Q09428 whole entry): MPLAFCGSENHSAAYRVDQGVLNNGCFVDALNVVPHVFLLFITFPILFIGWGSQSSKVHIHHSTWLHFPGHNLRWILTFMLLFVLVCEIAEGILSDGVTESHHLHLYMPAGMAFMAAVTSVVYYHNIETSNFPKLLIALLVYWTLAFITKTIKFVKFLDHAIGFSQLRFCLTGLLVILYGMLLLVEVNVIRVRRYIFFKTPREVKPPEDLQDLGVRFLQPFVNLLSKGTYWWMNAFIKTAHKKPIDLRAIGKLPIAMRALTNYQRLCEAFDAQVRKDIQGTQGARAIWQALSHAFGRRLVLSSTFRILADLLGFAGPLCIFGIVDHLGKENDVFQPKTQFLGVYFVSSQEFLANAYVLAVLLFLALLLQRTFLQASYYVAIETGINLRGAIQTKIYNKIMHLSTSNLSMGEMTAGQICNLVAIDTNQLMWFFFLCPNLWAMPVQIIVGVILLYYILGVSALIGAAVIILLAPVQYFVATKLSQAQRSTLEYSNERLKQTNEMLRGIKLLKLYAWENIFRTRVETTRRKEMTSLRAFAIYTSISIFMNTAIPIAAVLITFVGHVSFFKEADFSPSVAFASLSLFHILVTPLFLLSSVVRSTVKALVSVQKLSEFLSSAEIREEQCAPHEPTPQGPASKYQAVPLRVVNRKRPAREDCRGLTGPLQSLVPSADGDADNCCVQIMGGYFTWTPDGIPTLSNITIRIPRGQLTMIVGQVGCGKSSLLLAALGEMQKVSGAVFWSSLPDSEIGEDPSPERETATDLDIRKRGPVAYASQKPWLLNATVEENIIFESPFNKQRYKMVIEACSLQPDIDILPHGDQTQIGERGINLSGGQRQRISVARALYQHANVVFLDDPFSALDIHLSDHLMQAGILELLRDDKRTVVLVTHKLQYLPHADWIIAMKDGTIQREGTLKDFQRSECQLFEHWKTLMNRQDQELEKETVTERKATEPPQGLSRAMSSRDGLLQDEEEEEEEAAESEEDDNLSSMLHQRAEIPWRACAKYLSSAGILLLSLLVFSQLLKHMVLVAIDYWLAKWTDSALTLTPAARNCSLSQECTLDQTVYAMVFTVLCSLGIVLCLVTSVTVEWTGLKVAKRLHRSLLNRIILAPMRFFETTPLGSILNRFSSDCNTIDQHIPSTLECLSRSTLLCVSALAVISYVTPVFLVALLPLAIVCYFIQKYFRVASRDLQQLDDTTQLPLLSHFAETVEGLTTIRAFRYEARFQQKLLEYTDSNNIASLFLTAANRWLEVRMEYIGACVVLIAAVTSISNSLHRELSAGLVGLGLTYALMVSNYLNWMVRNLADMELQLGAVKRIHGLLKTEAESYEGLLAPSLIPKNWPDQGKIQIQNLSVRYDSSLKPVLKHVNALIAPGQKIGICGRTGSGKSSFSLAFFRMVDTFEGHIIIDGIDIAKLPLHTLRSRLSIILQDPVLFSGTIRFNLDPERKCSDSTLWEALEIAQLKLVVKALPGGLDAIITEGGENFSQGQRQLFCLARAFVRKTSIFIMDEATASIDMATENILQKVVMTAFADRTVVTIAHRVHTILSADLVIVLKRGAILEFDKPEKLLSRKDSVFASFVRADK

In the case of `NOCC(=O)O` [amino-oxyacetic acid], the “negative shift in cytosolic NAD+/NADH redox potential” value (malate-aspartate shuttle [1]) is listed as 26 mV and the glucose-induced insulin secretion (malate-aspartate shuttle [2]) is listed as “almost completely abrogated”.
For `C[C@@H]1O[C@@H](O[C@H]2C[C@@H](O)[C@]3(CO)[C@H]4[C@H](O)C[C@]5(C)[C@@H](C6=CC(=O)OC6)CC[C@]5(O)[C@@H]4CC[C@]3(O)C2)[C@H](O)[C@H](O)[C@H]1O` [ouabain], the “glycolysis and lactate production” value (Na(+)-K(+)-ATPase) is listed as “decreased glycolysis and lactate production”.
For `[Cl-].[K+]` [KCl], the “change in resting tone” value ([3]; 10 mM KCl, glucose-PSS) is given as -0.8 ± 0.8 g, the “change in resting tone (increased contraction)” value ([3]; 10 mM KCl, lactate-PSS) is given as 1.5 ± 0.7 g and the “change in resting tone” value ([3]; 10 mM KCl, pyruvate-PSS) is given as -2.1 ± 0.8 g. For the same compound, the EC50 ([3]; in glucose, read-out: EC50 of KCl concentration-response curve) was 32.1 ± 0.9 mM.
In the case of `CC(O)C(=O)O` (stereo not drawn) [lactate], the “increase in O2 consumption” value [4] is given as “without effect”.
In the case of `COC(=O)C(C)=O` [methyl pyruvate], the “ATP production (accumulation of ATP in the medium)” value [5] is given as “higher than that induced by pyruvate/glutamate”, the “cation current across the inner mitochondrial membrane” value [6] is given as “directly inhibited” and the “ATP production or ATP/ADP ratio” value (pancreatic beta-cells [7]) is given as “did not influence”. For the same compound, the “NAD(P)H autofluorescence” value (pancreatic beta-cells [7]) was “slightly decreased”, the “NADH and NADPH response (NAD(P)H imaging and LipDH autofluorescence)” value (pancreatic beta-cells [7]) was “stimulated a robust NADH and NADPH response” and the “cytosolic free Ca(2+) concentration” value (pancreatic beta-cells [7]; after an initial decrease) was “increased”. For the same compound, the “effect on ATP/ADP ratio in whole islets” value (whole islets) was “no effect”, the “depolarization of the beta-cell membrane potential” value (pancreatic beta-cells [8]; 5-20 mM) was “depolarized the beta-cell in a concentration-dependent manner” and the electrical activity (pancreatic beta-cells [8]; in the presence of 0.5 mM glucose) was “elicited electrical activity”. For the same compound, the “increase in insulin secretion relative to that induced by glucose” value (pancreatic beta-cells [9]) was 6 fold, the “concentration of maximal effect on insulin secretion” value (pancreatic beta-cells [9]; absence of glucose) was 5 mM and the “high concentration of the methyl ester giving negative insulinotropic action” value ([10]; and/or high D-glucose (16.7 mM)) was 20.0 mM. The “concentration of the ester at which positive insulinotropic action prevailed” value ([10]; low D-glucose, 2.8 to 8.3 mM) was at most 10.0 mM, the “K(ATP) current in standard whole-cell configuration” value (K(ATP) channels) was “inhibited” and the “block of KATP” value (K(ATP) channels) was “produced a block of KATP”. For the same compound, the “single-channel currents in inside-out patches” value (K(ATP) channels) was “blocked”.
